Measurements as given in PubChem BioAssay (NCI).
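Results reflect a 48-hour exposure of cells in 96-well plates to compound at five concentrations. The concentration for full growth arrest is given as TGI.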

Columns and labels:
Assay in all cases: NCI anticancer screen, dose series, 48 h
NCI-H23 lung = tested on: NCI-H23 lung
ACHN renal = tested on: ACHN renal
SF-295 CNS = tested on: SF-295 CNS
NCI-H522 lung = tested on: NCI-H522 lung
786-0 renal = tested on: 786-0 renal
OVCAR-8 ovarian = tested on: OVCAR-8 ovarian
RPMI-8226 leukemia = tested on: RPMI-8226 leukemia
K-562 leukemia = tested on: K-562 leukemia
EKVX NSCLC = tested on: EKVX NSCLC
A498 renal = tested on: A498 renal
SR leukemia = tested on: SR leukemia
MCF7 breast = tested on: MCF7 breast
IGROV1 ovarian = tested on: IGROV1 ovarian
NCI-H460 lung = tested on: NCI-H460 lung
SF-539 CNS = tested on: SF-539 CNS
HCT-116 colon = tested on: HCT-116 colon
KM12 colon = tested on: KM12 colon
UACC-62 melanoma = tested on: UACC-62 melanoma
NCI-H226 lung = tested on: NCI-H226 lung
UO-31 renal = tested on: UO-31 renal

| Structure (SMILES) | TGI (NCI-H23 lung) [µM] | TGI (ACHN renal) [µM] | TGI (SF-295 CNS) [µM] | TGI (NCI-H522 lung) [µM] | TGI (786-0 renal) [µM] | TGI (OVCAR-8 ovarian) [µM] | TGI (RPMI-8226 leukemia) [µM] | TGI (K-562 leukemia) [µM] | TGI (EKVX NSCLC) [µM] | TGI (A498 renal) [µM] | TGI (SR leukemia) [µM] | TGI (MCF7 breast) [µM] | TGI (IGROV1 ovarian) [µM] | TGI (NCI-H460 lung) [µM] | TGI (SF-539 CNS) [µM] | TGI (HCT-116 colon) [µM] | TGI (KM12 colon) [µM] | TGI (UACC-62 melanoma) [µM] | TGI (NCI-H226 lung) [µM] | TGI (UO-31 renal) [µM] |
| --- | --- | --- | --- | --- | --- | --- | --- | --- | --- | --- | --- | --- | --- | --- | --- | --- | --- | --- | --- | --- |
| Cc1nn(C(=O)Cc2ccccc2)c2c1C(c1ccc(Cl)cc1)SC(N)=N2 (stereo not given) | > 100 | > 100 | > 100 | > 100 | > 100 | > 100 | > 100 | > 100 | > 100 | > 100 | > 100 | > 100 | > 100 | > 100 | > 100 | > 100 | > 100 | > 100 | – | – |
| O=C(O)c1nc2ccc(C(F)(F)F)cc2nc1NCc1ccc(F)cc1 | 79.8 | > 100 | 81.1 | – | 28 | 55.7 | > 100 | 55.6 | 68.3 | 55.4 | 42 | 68.8 | > 100 | 63 | 43.5 | 29.4 | > 100 | 35.1 | > 100 | 7.39 |
| Cn1c(=O)oc2cc(C(O)CN3CCN(Cc4ccccn4)CC3)c(Cl)cc21 (stereo not given) | > 100 | > 100 | > 100 | > 100 | > 100 | > 100 | – | > 100 | > 100 | > 100 | > 100 | > 100 | > 100 | > 100 | > 100 | > 100 | > 100 | > 100 | > 100 | > 100 |
| Cc1c(O)c(OC2OC(CO)C(O)C(O)C2O)cc2c1CC[C@@H]1C2(C)C(=O)C[C@]2(C)[C@@H]([C@@](C)(O)C(=O)CCC(C)(C)O)[C@H](O)C[C@@]12C (stereo not given in full) | > 100 | > 100 | > 100 | > 100 | > 100 | > 100 | – | > 100 | > 100 | > 100 | > 100 | > 100 | > 100 | > 100 | > 100 | > 100 | > 100 | > 100 | > 100 | > 100 |
| O=C1/C(=C/c2cccc(Br)c2)Cc2ccccc21 | > 100 | > 100 | > 100 | > 100 | > 100 | > 100 | > 100 | > 100 | > 100 | – | > 100 | > 100 | > 100 | > 100 | > 100 | > 100 | > 100 | > 100 | > 100 | > 100 |
| CN1C(=O)c2ccccc2OC12C=Cc1ccc(O)cc1O2 (stereo not given) | > 100 | > 100 | > 100 | > 100 | > 100 | 37.4 | > 100 | > 100 | 64.5 | 53.4 | 27.4 | > 100 | > 100 | 61.8 | – | 81 | 77.5 | 91.6 | 92.8 | 57.7 |
| O=C(c1cccs1)N(C(=O)N1CCN(c2ccccc2)CC1)S(=O)(=O)c1ccccc1 | 59.5 | 39.9 | > 100 | 34.2 | 59.4 | 39.5 | – | 80.5 | 42.3 | > 100 | 49.3 | 74.6 | – | 97.3 | 35.2 | 38.6 | > 100 | 33.8 | 53.8 | 40.8 |
| O=C(Nc1nncs1)NS(=O)(=O)n1c(=S)sc2ccccc21 | > 100 | > 100 | > 100 | > 100 | > 100 | > 100 | > 100 | > 100 | > 100 | > 100 | > 100 | > 100 | > 100 | > 100 | > 100 | > 100 | > 100 | > 100 | – | > 100 |
| Cc1cn(C2CC(O)C(CO[Si](C)(C)C(C)(C)C)OC2OC(C)C)c(=O)[nH]c1=O (stereo not given) | > 100 | > 100 | > 100 | 89 | 31.6 | 91.8 | 78.2 | > 100 | > 100 | – | 62.4 | 58.3 | 77 | > 100 | 56.1 | 31.3 | > 100 | > 100 | > 100 | > 100 |
| CN(C)CCNC(=O)c1ccc2nc3c(nc2c1)C(=O)c1ccccc1-3 | > 100 | > 100 | > 100 | > 100 | > 100 | > 100 | 63.3 | – | > 100 | > 100 | 54.7 | > 100 | > 100 | 38.6 | > 100 | > 100 | > 100 | > 100 | – | > 100 |
| Cc1nc2ccc(NC(=S)Nc3ccccc3)cc2c(=O)n1-c1ccccc1 | > 100 | > 100 | > 100 | > 100 | > 100 | > 100 | 94.6 | > 100 | > 100 | > 100 | > 100 | > 100 | > 100 | > 100 | – | > 100 | > 100 | > 100 | > 100 | > 100 |
| COC(=O)c1c(C#N)[nH]c(-c2ccsc2)c1C(=O)OC | > 100 | > 100 | > 100 | > 100 | > 100 | > 100 | > 100 | > 100 | > 100 | > 100 | > 100 | > 100 | > 100 | – | – | > 100 | > 100 | > 100 | > 100 | > 100 |
| COc1ccc(-n2cnn3c(=O)c4cn[nH]c4nc23)cc1 | > 10 | > 10 | > 10 | > 10 | > 10 | > 10 | – | > 10 | > 10 | – | > 10 | > 10 | – | > 10 | > 10 | > 10 | > 10 | – | > 10 | > 10 |
